Measured values: paper PMC11995238, “Discovery of Highly Potent BET Inhibitors based on a Tractable Tricyclic Scaffold” (ACS Medicinal Chemistry Letters, 2025)
≈ marks a conversion by molar mass, not a printed value. Where “and” joins values, the source holds several entries; their conditions need not be identical. Identical values can stand only once. Like-named read-outs stand apart in the source and are kept apart here.

Experiments:
BRD4-BD1 [1] = target: T1, BRD4-BD1 (Homo sapiens, UniProt O60885); assay: BRD4-BD1 FRET binding; conditions: for pIC50 ± SD: n = 4
Experimental: (§1) Potency was determined against BRD4-BD1 using FRET binding, with this being treated as a surrogate of BRD4 activity given the homology between BD1 and BD2 across the BET proteins. , PFI is calculated from hydrophobicity plus aromatic ring count (chromatographic (chrom) logD7.4 + #Ar), with this metric being indicative of developability, or likelihood of progression to a drug candidate. PFI was used to assess the physicochemical profile of compounds, with a target of PFI < 7 as risks for several parameters, including solubility, are increased above this upper limit. Our objective was to develop a BET inhibitor with high potency and favorable physicochemical properties, as determined using PFI and LipE to guide compound optimization.

[2] = hydrophobicity (chrom LogD7.4) and property forecast index (PFI); assay type: physicochemical; conditions: for PFI: PFI = chrom LogD7.4 + #Ar; for chromatographic logD: pH 7.4, chromatographic
Experimental: as §1
(§2) hydrophobicity (chrom LogD7.4), solubility (CAD), permeability (PAMPA)
(§3) and metabolic stability (CLint) have all been described previously.1

BRD4-BD1 [3] = target: T1, BRD4-BD1; assay: lipophilic efficiency (LipE = pIC50 – cLogP); conditions: predicted using Data Warrior
Description: The final BET inhibitor discussed is BMS-986158 (4) (Figure ).

[4] = parallel artificial membrane permeability assay (PAMPA); assay type: in vitro ADME
Experimental: Additionally, the in vitro permeability of these compounds was determined by a parallel artificial membrane permeability assay (PAMPA). […] This would be protonated at physiological pH and decrease the overall affinity of the compound toward the hydrophobic membrane region.
as §2, §3

[5] = kinetic solubility by CAD; assay type: physicochemical; conditions: n = 1
Experimental: (§4) For both enantiomers, kinetic solubility, permeability and metabolic stability data, the latter measured by in vitro microsomal intrinsic clearance (CLint) in rats and humans, was collected (Table ). , Docking of 44 and 45 into the BRD4-BD1 binding pocket was also carried out (Figures S3–4).
as §2, §3

[6] = in vitro metabolic stability in rat liver microsomes (CLint); assay type: in vitro ADME, rats; conditions: n = 1
Experimental: as §4, §2, §3

[7] = in vitro metabolic stability in human liver microsomes (CLint); assay type: in vitro ADME, humans; conditions: n = 1
Experimental: as §4, §2, §3

BRD2 = conditions: binding to BRD2, reported; cited from earlier work
BRD3 = conditions: binding to BRD3, reported; cited from earlier work
BRD4 [8] = conditions: binding to BRD4, reported; cited from earlier work
[9] = tested on: panel of human lung cancer cell lines; conditions: reported; cited from earlier work
BRD4 [10] = conditions: BRD4, AlphaScreen; cited from earlier work
c-Myc expression = conditions: advanced malignancies such as AML; cited from earlier work
tumor cell = conditions: advanced malignancies such as AML; cited from earlier work
[11] = cited from earlier work
BRD4 [12] = conditions: BRD4, fluorescence polarization; cited from earlier work
[13] = Phase I studies; cited from earlier work
BRD4 [14] = conditions: BRD4, FRET binding; cited from earlier work
[15] = BRD4-BD1, FRET binding, n = 2, enantiomers
[16] = BRD4-BD1, values for 29, 30, 40

SMILES	PFI [2]	LipE (BRD4-BD1 [3])	Papp [4] [nm/s]	pIC50 ± SD (BRD4-BD1 [1]; BRD4-BD1, FRET binding)	also measured
Cc1nnn(C)c1-c1ccc2c3nnc(NCCO)nc3n([C@@H](c3ccccn3)C3CCOCC3)c2c1 (single isomer, unassigned) [Compound 44]	7.14	6.16	77.8	–	pIC50 (BRD4-BD1 [1]; [15]): 8.35 ± 0.01; chromatographic logD [2]: 2.14; Solubility [5]: 0.134 mg/mL (≈ 268 µM); microsomal CLint [6]: < 10 µL/min/mg; microsomal CLint [7]: < 10 µL/min/mg
Cc1nnn(C)c1-c1ccc2c3nnc(NCCO)nc3n([C@H](c3ccccn3)C3CCOCC3)c2c1 (single isomer, unassigned) [Compound 45]	7.14	5.83	93.6	–	pIC50 (BRD4-BD1 [1]; [15]): 8.02 ± 0.08; Solubility [5]: 0.138 mg/mL (≈ 276 µM); microsomal CLint [6]: < 10 µL/min/mg; microsomal CLint [7]: < 10 µL/min/mg
Cc1nnn(C)c1-c1cnc2c3ccc(C(C)(C)O)cc3n([C@@H](c3ccccc3)C3CCOCC3)c2c1 (stereo in doubt) [Compound 4, BMS-986158, reference compound]	9.08	3.51	498	–	chromatographic logD [2]: 4.08; Solubility [5]: 0.109 mg/mL (≈ 220 µM); IC50 (BRD2): 0.8 nM; IC50 (BRD3): 1.4 nM; IC50 (BRD4 [8]): 1.1 nM; cytotoxicity [9]: potent cytotoxicity
Cc1sc2c(c1C)C(c1ccc(Cl)cc1)=N[C@@H](CC(=O)OC(C)(C)C)c1nnc(C)n1-2 [Compound 1, JQ1]	–	–	–	–	pIC50 (BRD4 [10]): 7.10; c-Myc expression (c-Myc expression): effectively downregulate; tumor cell proliferation (tumor cell): inhibit tumor cell proliferation; half-life [11]: 1 h; oral bioavailability [11]: low
COc1cc2c(cc1-c1c(C)noc1C)ncc1[nH]c(=O)n([C@H](C)c3ccccn3)c12 [Compound 2, I-BET151]	–	–	–	–	pIC50 (BRD4 [12]): 6.10; cardiotoxicity [13]: exhibited cardiotoxicity; c-Myc expression (c-Myc expression): effectively downregulate; tumor cell proliferation (tumor cell): inhibit tumor cell proliferation
CCS(=O)(=O)Nc1ccc(Oc2ccc(F)cc2F)c(-c2cn(C)c(=O)c3[nH]ccc23)c1 [Compound 3, N-(4-(2,4-Difluorophenoxy)-3-(6-methyl-7-oxo-6,7-dihydro-1H-pyrrolo[2,3-c]pyridin-4-yl)phenyl)ethanesulfonamide]	–	–	–	–	pIC50 (BRD4 [14]): 8.82; c-Myc expression (c-Myc expression): effectively downregulate; tumor cell proliferation (tumor cell): inhibit tumor cell proliferation
COCCNc1nnc2c(n1)[nH]c1cc(-c3c(C)noc3C)ccc12 [Compound 5a]	6.83	4.39	–	6.22 ± 0.05	–
COCCNc1nnc2c(n1)[nH]c1ccc(-c3c(C)noc3C)cc12 [Compound 5b]	6.78	3.82	–	5.64 ± 0.05	–
COCCNc1nnc2c3ccc(-c4c(C)noc4C)cc3n(Cc3ccccc3)c2n1 [Compound 12a]	10.6	4.22	–	7.53 ± 0.12	–
COCCNc1nnc2c3cc(-c4c(C)noc4C)ccc3n(Cc3ccccc3)c2n1 [Compound 12b]	10.8	2.77	–	6.08 ± 0.34	–
COCCNc1nnc2c3ccc(-c4c(C)noc4C)cc3n(Cc3ccc(F)cc3)c2n1 [Compound 13a]	10.7	3.93	–	7.34 ± 0.04	–
COCCNc1nnc2c3cc(-c4c(C)noc4C)ccc3n(Cc3ccc(F)cc3)c2n1 [Compound 13b]	10.8	2.77	–	6.18 ± 0.05	–
COCCNc1nnc2c3ccc(-c4c(C)noc4C)cc3n(C(c3ccccc3)C3CCOCC3)c2n1 (stereo not drawn) [Compound 22]	10.6	3.69	–	8.27 ± 0.31	–
COCCNc1nnc2c3cc(-c4c(C)noc4C)ccc3n(C(c3ccccc3)C3CCOCC3)c2n1 (stereo not drawn) [Compound 23]	10.7	1.75	–	6.33 ± 0.03	–
COCCNc1nnc2c3ccc(-c4c(C)noc4C)cc3n(C(c3ccccn3)C3CCOCC3)c2n1 (stereo not drawn) [Compound 24]	9.74	4.38	–	8.01 ± 0.11	–
COCCNc1nnc2c3ccc(-c4c(C)noc4C)cc3n(C(c3ccccc3)C3CCNCC3)c2n1 (stereo not drawn) [Compound 27]	7.96	3.20	–	7.63 ± 0.05	–
COCCNc1nnc2c3ccc(-c4c(C)noc4C)cc3n(C(c3ccccn3)C3CCNCC3)c2n1 (stereo not drawn) [Compound 28]	7.37	4.25	–	7.74 ± 0.12	–
Cc1noc(C)c1-c1ccc2c3nnc(NCCO)nc3n(C(c3ccccn3)C3CCNCC3)c2c1 (stereo not drawn) [Compound 29]	6.74 and < 7	4.23	< 3	–	pIC50 (BRD4-BD1 [1]; [16]): 7.29 ± 0.06
COCCNc1nnc2c3ccc(-c4c(C)nnn4C)cc3n(C(c3ccccn3)C3CCNCC3)c2n1 (stereo not drawn) [Compound 30]	6.46 and < 7	4.93	< 3	–	pIC50 (BRD4-BD1 [1]; [16]): 7.41 ± 0.03
Cc1nnn(C)c1-c1ccc2c3nnc(NCCO)nc3n(C(c3ccccn3)C3CCOCC3)c2c1 (stereo not drawn) [Compound 40]	7.15	5.79	104	–	pIC50 (BRD4-BD1 [1]; [16]): 7.98 ± 0.17
